Results on one compound are retold here after patent US20150017673A1, “COMPOSITIONS AND METHODS FOR DRUG-SENSITIZATION OR INHIBITION OF A CANCER CELL” (priority 2012, published 2015).

SMILES strings stand for the structures. “And” between values parts separate entries of the source, which are not always exact repeats. Equal values may be shown once.

Data set [1] concerns human ovarian cancer cell line SK-OV-3. Description: SK-OV-3 xenograft efficacy study in SCID mice. In kind it is in vivo. The protocol: In a fifth efficacy study, we generated xenografts of the human ovarian cancer cell line SK-OV-3, a cell line considered doxorubicin-resistant, by bilateral subcutaneous (s.c.) injection of 1×10^7 tumor cells to establish localized tumors in 6-8 week old female SCID mice. Using rifabutin co-administered with DOX, in vivo efficacy was assessed. […] Cycles of Dox or Dox+rifabutin were given once a week for 4 cycles. This cyclical dosing scheme of mouse models has precedent in the literature and is intended to mimic the cycles of DOXIL® (Centocor Ortho Biotech Products, LP, Raritan, N.J.) given in the clinic. Rifabutin was administered on the day of each DOX treatment and by gavage. Mouse body weight and tumor size were monitored.

The subject of data set [2] is multi-drug-resistant breast cancer cell line MDA-MB-231. Description: Cell growth assay on MDA-MB-231 cells. In kind it is cell-based. As to conditions: MDA-MB-231, breast carcinoma. The procedure: (§1) Compositions were tested on CHOP-resistant G3 NHL cells that had been cultivated in RPMI medium for five days. Prior to assay, the cells were counted by haemocytometer and cell concentration standardized to 625,000 cells/ml. Test drugs were solubilized in 100% DMSO and then diluted to final assay concentration with 0.1M phosphate buffered saline (PBS) and a final DMSO concentration of 0.5%. Cells were added to assay plates containing the test drugs (rifabutin+148 ng/ml, 74 ng/ml, 37 ng/ml, or 0 ng/ml doxorubicin) and allowed to incubate for 96 hours at 37° C. and 5% CO2. The metabolic dye rezasurin was added to the wells of the assay plate at a final concentration of 20 μg/ml and the plates were incubated for an additional 24 hours. The plates were then read in a BMG Polarstar plate reader at wavelength (573-605) and the data plotted as OD versus increasing dilutions (i.e. decreasing total amounts) of rifabutin derivative concentration.
(§2) In these experiments, the following cell lines were used: CHOP-resistant NHL cell line G3, CHOP-sensitive NHL cell line CRL2631, the multi-drug resistant sarcoma cell line MES-SA-Dx5; multi-drug-resistant breast cancer cell line MDA-MB-231, multi-drug resistant ovarian carcinoma cell line SK-OV3, multi-drug resistant ovarian cancer cell line NCI/ADR-RES, drug-sensitive ovarian cancer cell line OVCAR-5, and multi-drug resistant ovarian cancer cell line OVCAR-3.
(§3) Additional cell lines used include: ovarian cancer OVCAR-8, T lymphoblastoid leukemia MOLT-4, dexamethasone-resistant multiple myeloma MM.1R, myeloid leukemia cells HL-60, osteosarcoma cells U-2 OS, and myeloma RPMI 8226.

Data set [3] relates to multi-drug resistant sarcoma cell line MES-SA-Dx5. Description: Cell growth assay on MES-SA-Dx5 cells. In kind it is cell-based. As to conditions: MES-SA-Dx5, uterus sarcoma. The procedure: as §1, §2, §3
Data set [4] has as its system lymphoma aspirate from a dog with CHOP-resistant lymphoma. Description: CHOP responsiveness of dog lymphoma aspirate (resazurin). The class given is cell-based. The protocol:
A single lymphoma aspirate from a dog with CHOP-resistant lymphoma was tested for responsiveness to CHOP in the presence or absence of rifabutin. CHOP-responsiveness was measured by a decrease in fluorescence signal generated by resazurin.
On the technique in general: Alamar Blue is a resazurin reagent that responds to reducing activity.

Another data set relates to CRL2631 cells. Description: Collagen invasion 3D assay, CRL2631 cells. In kind it is cell-based, human. As to conditions: 10 uM Rifabutin in collagen matrix, 24 hours. The protocol: (§4) The effects of rifabutin on cell invasion was assessed in a collagen invasion 3D assay. Increased interest in the use of 3D culture systems has been motivated by accumulating evidence that 3D models better reflect the microenvironment of tumors and metastases and more accurately predict therapeutic response in vivo compared with conventional 2D assays. A collagen invasion 3D assay allows the rapid and quantitative assessment of invasiveness and a means to screen for drugs which alter the invasive phenotype of tumor cells.
(§5) The CHOP-resistant G3 cell line is much more invasive in a collage invasion 3D assay than its CHOP-sensitive parent cell line (CRL2631). Collagen matrices (1 mg/ml) were prepared as previously described in Su, S. C., et al., Molecular profile of endothelial invasion of three-dimensional collagen matrices: insights into angiogenic sprout induction in wound healing. Am. J. Physiol. […] Cell invasion density was quantified by counting fixed cultures under transmitted light using an Olympus CK2 inverted microscope equipped with eyepieces displaying a 10×10 ocular grid. For each condition, four random fields were selected and the number of invading cells per high power field (HPF) was counted manually at 10× magnification, corresponding to 1 mm^2 area. […]

In another data set the test system is G3 cells. Description: Collagen invasion 3D assay, G3 cells. In kind it is cell-based, human. As to conditions: 10 uM Rifabutin in collagen matrix, 24 hours. The procedure:
as §4, §5

For `CO[C@H]1/C=C/O[C@@]2(C)Oc3c(C)c(O)c4c(c3C2=O)C2=NC3(CCN(CC(C)C)CC3)NC2=C(NC(=O)/C(C)=C\C=C\[C@H](C)[C@H](O)[C@@H](C)[C@@H](O)[C@@H](C)[C@H](OC(C)=O)[C@@H]1C)C4=O` [Rifabutin, rifabutin], the average tumor volume in data set [1] (after 19 days treatment, DOX 3.3 mg/kg i.v. + rifabutin 25 mg/kg oral weekly) came out at 348 mm^3. The “reduction in tumor size versus DOX-only” value in data set [1] (after 19 days, DOX 3.3 mg/kg i.v. + rifabutin 25 mg/kg oral) was determined as 40%. Besides, the “Magnitude of potentiation in combination with doxorubicin” value in data set [2] is recorded as “+++ (potentiation greater than 5 fold increase)”; in data set [3], “++ (potentiation between 2.1 to 5 fold increase)”. Moreover, in data set [4] (CHOP with 5 μM rifabutin), the “CHOP dose giving significant growth inhibition” value is 320 ng/mL and 640 ng/mL. Further, the “cell viability in the absence of CHOP” value in data set [4] (rifabutin alone) is “no effect on cell viability”. In addition, the reduction of invasion result with CRL2631 cells was “Less of this effect”; with G3 cells, “up to 30%”.
